Key:
[1] = Time dependent indole levels in brain tissue after i.p. administration; assay type: in vivo, Sprague-Dawley rats; settings: mean+SD, N=4
Procedure: Time dependent changes in indole levels in brain tissue (pg/mg protein) after administration of 0.5 mg/kg i.p. of drug in phosphate buffered saline to one month old male Sprague-Dawley rats (N=4 animals, mean+SD). Endogenous levels of melatonin in saline treated control animals were 25+10 pg/mg protein, endogenous levels of indolepropionate were 80+20 pg/mg protein. Significant amounts of endogenous IPAM in rat brain could not be detected. Brain tissue was homogenized 1:10 in phosphate buffer and extracted 1:1 with ethylacetate. Recovery for melatonin, indolepropionate and IPAM were 57+6, 69+12 and 80+4%. Indoles were measured by HPLC with electrochemical detection (20% methanol eluent, 990 mV oxidation potential, IPAM elutes at 18 minutes, melatonin at 21 minutes, indolepropionate at 36 minutes).

Aβ1-40 = target: T1, Aβ1-40 (Homo sapiens, UniProt P05067); test: Thioflavin T fluorescence, inhibition of Aβ aggregation; assay type: biochemical; settings: Aβ 250 μM, compound:Aβ molar ratio 1:1; FIG. 1
T1 construct: thioflavin T fluorescence experiments performed with Aβ1-40
T1 sequence (P05067 672-711): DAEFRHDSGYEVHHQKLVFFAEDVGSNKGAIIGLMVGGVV
Procedure: FIG. 1 illustrates the results of thioflavin T fluorescence experiments performed with Aβ1-40 showing the effects of IPAM as compared with melatonin and IPA.
The ThT was performed as previously described. Briefly, 5 μl were obtained from each sample after incubation and added to 2 ml of a glycine-NaOH buffer (50 mM), pH 9.2, containing 2 μM thioflavin T. Fluorescence intensities were measured at excitation 435 nm and emission 485 nm in a Hitachi F-2000 fluorescence spectrophotometer. A time scan of fluorescence intensity was performed and three measurements were obtained after the decay reached a plateau at 200, 220, and 240 seconds. These measurements were averaged after subtracting the background fluorescence of 2.0 μM thioflavin T in the blank buffers. […] All measurements were done in triplicate. Aqueous stock solutions of 1 mM of each compound were made by first preparing a 10 mM suspension in 1 N HCl and then by completely dissolving them in 100 mM phosphate buffered saline at pH 7.4 (1:10, v:v) and re-adjusting the pH to 7.4 with 1 N NaOH. Solutions of Aβ were prepared by dissolving 2.2 mg of the peptide in 1 ml of 50 mM bicarbonate buffer at pH 9.6. 50 μl aliquots of this solution were lyophilized and stored at −80° C. until needed. Working stock solutions of the peptide (500 μM concentration) were prepared in HPLC-grade water immediately prior to the experiments. In the experimental samples, Aβ was further diluted 1:1 with phosphate buffered saline (pH 7.4, 100 mM) to which each of the compounds or equivalent volumes of buffer solution were added. The final concentration of Aβ in each sample was 250 μM and the compound:Aβ molar ratios were 1:1.

[2] = system: Hydroxyl Radical Mediated Oxidative Damage to DNA; test: Inhibition of hydroxyl radical mediated oxidative damage to DNA in rat forebrain homogenate (8-hydroxydeoxyguanosine formation); assay type: biochemical; settings: 60 min with 3 mM hydrogen peroxide, 4 mM ferrous sulfate, 2 mM ADP; mean+SD, N=6; read-out: IC 50 (concentration to reduce oxidative DNA damage by 50%)
Procedure: Rat forebrain homogenate was incubated for sixty minutes with 3 mM hydrogen peroxide, 4 mM ferrous sulfate and 2 mM ADP to generate hydroxyl radicals. The concentrations of each indole compound to reduce oxidative DNA damage by 50%, the IC 50 values, are given as means+standard deviations for N=6 different determinations. The IC 50 values were calculated by running six experiments each at 10 increasing concentrations ranging from 0.01 to 100 micromolar of melatonin, indole-3-propionic acid and indole-3-propionamide. DNA damage was examined by measuring the formation of 8-hydroxydeoxyguanosine with HPLC and electrochemical detection in the presence and absence of the hydroxyl radical scavengers.

rotifers (Philodina) [3] = test: Inhibition of the aging process in a rotifer model (life span); assay type: in vivo
Description: Free-radicals are involved in the aging process and since IPAM is a powerful cytoprotective agent, we tested IPAM for its property to inhibit the aging process. […] (*=p<0.05, statistically significant difference to control).

rotifers (Philodina) [4] = test: Synergistic effects on longevity of rotifers with ascorbate and trolox; assay type: in vivo; parameters: Maximum Life Span: unit not given here
Procedure: Ascorbate and trolox were administered at a concentration of 100 micromolar, the indoles were given at a concentration of 5 micromolar.

[5] = in vivo; cited from earlier work
[6] = 30 minutes after 0.5 mg/kg i.p. in phosphate buffered saline
[7] = 60 minutes after 0.5 mg/kg i.p. in phosphate buffered saline
[8] = 120 minutes after 0.5 mg/kg i.p. in phosphate buffered saline
[9] = series against Control (0.1% DMSO), ascorbate, trolox 100 micromolar

SMILES	indole levels in brain tissue [1, 6]	indole levels in brain tissue [1, 7]	indole levels in brain tissue [1, 8]	inhibition of Aβ aggregation (Aβ1-40)	IC50 [2]	Increase in % of control (maximum life span) (rotifers (Philodina) [3]; 0.5 μM)	Increase in % of control (median life span) (rotifers (Philodina) [3]; 0.5 μM)	Maximum life span in days (90% survival) (rotifers (Philodina) [3]; 0.5 μM, control 27)	Increase in % of control (maximum life span) (rotifers (Philodina) [3]; 5 μM)	Increase in % of control (median life span) (rotifers (Philodina) [3]; 5 μM)	Maximum life span in days (90% survival) (rotifers (Philodina) [3]; 5 μM, control 30)	Increase in % of control (maximum life span) (rotifers (Philodina) [3]; 50 μM)	Increase in % of control (median life span) (rotifers (Philodina) [3]; 50 μM)	Maximum life span in days (90% survival) (rotifers (Philodina) [3]; 50 μM, control 30)	Increase in % of control (Medium Life Span) (rotifers (Philodina) [4]; control = 0.1% DMSO)	Maximum Life Span (rotifers (Philodina) [4]; [9])	half-life [5]	further results
NC(=O)CCc1c[nH]c2ccccc12 [IPAM, indole-3-propionamide]	480 + 46 pg/mg protein	520 + 50 pg/mg protein	570 + 69 pg/mg protein	potent inhibitor of Aβ aggregation	180 nM	+55%	+31%	42 days	+50%	+40%	45 days	+13%	+15%	34 days	–	–	–	toxicity in rotifers (rotifers (Philodina) [3]; in vivo): devoid of toxicity
Cc1c(C)c2c(c(C)c1O)CCC(C)(C(=O)O)O2 (stereo not drawn) [Trolox]	–	–	–	–	–	–	–	–	–	–	–	–	–	–	+8%	30	–	Maximum Life Span (rotifers (Philodina) [4]; series against Trolox in 0.1% DMSO, trolox 100 micromolar, indoles 5 micromolar): 34
COc1ccc2[nH]cc(CCNC(C)=O)c2c1 [Melatonin]	450 + 30 pg/mg protein	200 + 15 pg/mg protein	73 + 6 pg/mg protein	potent inhibitor of Aβ aggregation	1400 nM	+30%	+19%	35 days	+40%	+29%	42 days	+3%	+12%	31 days	–	–	0.333 h	–
O=C(O)CCc1c[nH]c2ccccc12 [IPA, indole-3-propionic acid]	160 + 11 pg/mg protein	210 + 18 pg/mg protein	230 + 25 pg/mg protein	potent inhibitor of Aβ aggregation	7460 nM	+37%	+28%	39 days	+37%	+30%	41 days	–	−3%	30 days	–	–	4.5 h	–
O=C1O[C@H]([C@@H](O)CO)C(O)=C1O [Ascorbate]	–	–	–	–	–	–	–	–	–	–	–	–	–	–	−1%	28	–	Increase in % of control (maximum life span) (rotifers (Philodina) [4]; control = 0.1% DMSO): −7%; Maximum Life Span (rotifers (Philodina) [4]; series against Ascorbate in 0.1% DMSO, ascorbate 100 micromolar, indoles 5 micromolar): 30

Reference: patent publication US20070105937A1, “Indole-3-propionamide and derivatives thereof” (priority 2003, published 2007)
